Reference: PubChem BioAssay AID1259411 (Chemical Carcinogenesis Research Information System (CCRIS), 2018)
Active and inactive are the calls of the source. The rule behind the calls is not given here.

System: rodent carcinogenicity bioassays, tumor incidence
Test: CCRIS carcinogenicity studies
How it was run: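 Archive of carcinogenicity, mutagenicity, tumor promotion and tumor inhibition results drawn from journals, NCI reports and other sources, expert-reviewed; covers 1985-2011 and is no longer updated.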

CNC(=S)N(C)C
carcinogen call (Species: MOUSE, Strain/Sex: B6C3F1/FEMALE, Route: ORAL, Dose: 0, 500, 1000 PPM IN DIET, Dose: 0, 500, 1000 PPM IN DIET): inactive; negative | carcinogen call (Species: MOUSE, Strain/Sex: B6C3F1/MALE, Route: ORAL, Dose: 0, 500, 1000 PPM IN DIET, Dose: 0, 500, 1000 PPM IN DIET): inactive; negative | carcinogen call (Species: RAT, Strain/Sex: F344/FEMALE, Route: ORAL, Dose: 0, 250, 500 PPM IN DIET, Dose: 0, 250, 500 PPM IN DIET, Tumor Site: Type of Lesion: THYROID GLAND: FOLLICULAR CELL CARCINOMA OR ADENOMA): active; positive | carcinogen call (Species: RAT, Strain/Sex: F344/MALE, Route: ORAL, Dose: 0, 250, 500 PPM IN DIET, Dose: 0, 250, 500 PPM IN DIET): inactive; negative

O=[N+]([O-])c1ccc2c3c1ccc1cccc(c13)[C@@H]1O[C@H]21
carcinogen call (Species: MOUSE, Strain/Sex: B6C3F1/FEMALE, Route: INTRAPERITONEAL, Dose: 0, 7 NMOL (TOTAL DOSE), 1/7, 2/7 AND 4/7 OF THE TOTAL DOSE ADMINISTERED WITHIN 24 HR OF BIRTH AND AT 8 AND 15 D OF AGE): inactive; negative | carcinogen call (Species: MOUSE, Strain/Sex: B6C3F1/MALE, Route: INTRAPERITONEAL, Dose: 0, 7 NMOL (TOTAL DOSE), 1/7, 2/7 AND 4/7 OF THE TOTAL DOSE ADMINISTERED WITHIN 24 HR OF BIRTH AND AT 8 AND 15 D OF AGE): inactive; negative

Clc1ccc(Cl)c(-c2cc(Cl)ccc2Cl)c1
carcinogen call (Species: MOUSE, Strain/Sex: STRAIN-A/FEMALE, Route: INTRAPERITONEAL, Dose: 0, 0.1, 0.2 UMOL/UL OF DMSO 5, 10 AND 20 µL GIVEN ON DAYS 4, 8 AND 15 AFTER BIRTH, RESPECTIVELY (STUDY DURATION: 28 WK), Dose: 0, 0.1, 0.2 UMOL/UL OF DMSO 5, 10 AND 20 µL GIVEN ON DAYS 4, 8 AND 15 AFTER BIRTH, RESPECTIVELY (STUDY DURATION: 28 WK)): inactive; negative | carcinogen call (Species: MOUSE, Strain/Sex: STRAIN-A/MALE, Route: INTRAPERITONEAL, Dose: 0, 0.1, 0.2 UMOL/UL OF DMSO 5, 10 AND 20 µL GIVEN ON DAYS 4, 8 AND 15 AFTER BIRTH, RESPECTIVELY (STUDY DURATION: 28 WK), Dose: 0, 0.1, 0.2 UMOL/UL OF DMSO 5, 10 AND 20 µL GIVEN ON DAYS 4, 8 AND 15 AFTER BIRTH, RESPECTIVELY (STUDY DURATION: 28 WK)): inactive; negative

Clc1cc2c(c(Cl)c1Cl)Oc1c(Cl)c(Cl)c(Cl)c(Cl)c1O2
carcinogen call (Species: RAT, Strain/Sex: SPRAGUE-DAWLEY/FEMALE (30), Route: ORAL, GAVAGE IN CORN OIL, Dose: 2.5 MG/KG BW PLUS 0.63 MG/KG 0N D 150, TOTAL DOSE 3.1 MG/KG (STUDY DURATION: LIFESPAN), Tumor Site: Type of Lesion: LIVER: CARCINOMA): active; positive | carcinogen call (Species: RAT, Strain/Sex: SPRAGUE-DAWLEY/FEMALE (30), Route: ORAL, GAVAGE IN CORN OIL, Dose: 2.5 MG/KG BW PLUS 0.63 MG/KG ON D 150, TOTAL DOSE 3.1 MG/KG (STUDY DURATION: LIFESPAN), Tumor Site: Type of Lesion: LUNG: CARCINOMA): active; positive | carcinogen call (Species: RAT, Strain/Sex: SPRAGUE-DAWLEY/FEMALE (30), Route: ORAL, GAVAGE IN CORN OIL, Dose: 2.8 MG/KG BW PLUS 0.086 MG/KG EVERY OTHER WK FOR LIFESPAN, TOTAL DOSE 4.6 MG/KG (STUDY DURATION: LIFESPAN), Tumor Site: Type of Lesion: LUNG: CARCINOMA): active; positive | carcinogen call (Species: RAT, Strain/Sex: SPRAGUE-DAWLEY/FEMALE, Route: ORAL, GAVAGE IN CORN OIL, Dose: 0, 1.0, 2.8, 3.1, 3.4, 3.8, 4.1 MG/KG BW ONCE (STUDY DURATION: LIFESPAN), Dose: 0, 1.0, 2.8, 3.1, 3.4, 3.8, 4.1 MG/KG BW ONCE (STUDY DURATION: LIFESPAN), Tumor Site: Type of Lesion: LIVER: CARCINOMA): active; positive at higher doses | carcinogen call (Species: RAT, Strain/Sex: SPRAGUE-DAWLEY/FEMALE, Route: ORAL, GAVAGE IN CORN OIL, Dose: 0, 1.0, 2.8, 3.1, 3.4, 3.8, 4.1 MG/KG BW ONCE (STUDY DURATION: LIFESPAN), Dose: 0, 1.0, 2.8, 3.1, 3.4, 3.8, 4.1 MG/KG BW ONCE (STUDY DURATION: LIFESPAN), Tumor Site: Type of Lesion: LUNG: CARCINOMA): active; positive

CCN(N=O)C(=O)NC
carcinogen call (Species: RAT, Strain/Sex: F344/FEMALE, Route: GAVAGE, Dose: 0, 20, 40 UMOL/WK IN CORN OIL/ETHYL ACETATE (2: 1) FOR 30 WK FOR TOTAL DOSES OF 0, 0.6, 1.2 MMOL (STUDY DURATION: LIFETI, Dose: 0, 20, 40 UMOL/WK IN CORN OIL/ETHYL ACETATE (2: 1) FOR 30 WK FOR TOTAL DOSES OF 0, 0.6, 1.2 MMOL (STUDY DURATION: LIFETI, Tumor Site: Type of Lesion: MAMMARY GLAND: TUMOR, UTERUS: TUMOR): active; positive | carcinogen call (Species: RAT, Strain/Sex: F344/FEMALE, Route: ORAL, Dose: 0, 20, 40 UMOL/WK IN DRINKING WATER FOR 30 WK FOR TOTAL DOSES OF 0, 0.6, 1.2 MMOL (STUDY DURATION: LIFETIME), Dose: 0, 20, 40 UMOL/WK IN DRINKING WATER FOR 30 WK FOR TOTAL DOSES OF 0, 0.6, 1.2 MMOL (STUDY DURATION: LIFETIME), Tumor Site: Type of Lesion: LUNG: TUMOR, MAMMARY GLAND: TUMOR, UTERUS: TUMOR, THYROID: FOLLICULAR CELL TUMOR, NERVOUS SYSTEM: TUMOR, Tumor Site: Type of Lesion: LUNG: TUMOR, MAMMARY GLAND: TUMOR, UTERUS: TUMOR, THYROID: FOLLICULAR CELL TUMOR, NERVOUS SYSTEM: TUMOR): active; positive | carcinogen call (Species: RAT, Strain/Sex: F344/MALE, Route: GAVAGE, Dose: 0, 20, 40 UMOL/WK IN CORN OIL/ETHYL ACETATE (2: 1) FOR 30 WK FOR TOTAL DOSES OF 0, 0.6, 1.2 MMOL (STUDY DURATION: LIFETI, Dose: 0, 20, 40 UMOL/WK IN CORN OIL/ETHYL ACETATE (2: 1) FOR 30 WK FOR TOTAL DOSES OF 0, 0.6, 1.2 MMOL (STUDY DURATION: LIFETI, Tumor Site: Type of Lesion: LUNG: TUMOR, TESTIS: MESOTHELIOMA, ZYMBAL GLAND: TUMOR, Tumor Site: Type of Lesion: LUNG: TUMOR, TESTIS: MESOTHELIOMA, ZYMBAL GLAND: TUMOR): active; positive | carcinogen call (Species: RAT, Strain/Sex: F344/MALE, Route: ORAL, Dose: 0, 20, 40 UMOL/WK IN DRINKING WATER FOR 30 WK FOR TOTAL DOSES OF 0, 0.6, 1.2 MMOL (STUDY DURATION: LIFETIME), Dose: 0, 20, 40 UMOL/WK IN DRINKING WATER FOR 30 WK FOR TOTAL DOSES OF 0, 0.6, 1.2 MMOL (STUDY DURATION: LIFETIME), Tumor Site: Type of Lesion: LUNG: TUMOR, THYROID: FOLLICULAR CELL TUMOR, TESTIS: MESOTHELIOMA, NERVOUS SYSTEM: TUMOR, ZYMBAL GLAND: TUMOR, COLON: TU, Tumor Site: Type of Lesion: LUNG: TUMOR, THYROID: FOLLICULAR CELL TUMOR, TESTIS: MESOTHELIOMA, NERVOUS SYSTEM: TUMOR, ZYMBAL GLAND: TUMOR, COLON: TU): active; positive

O=C1c2ccccc2-c2ccc3c4c(ccc1c24)-c1ccccc1C3=O
carcinogen call (Species: MOUSE, Strain/Sex: B6C3F1/FEMALE, Route: ORAL, Dose: 0, 12500, 25000 PPM IN DIET, Dose: 0, 12500, 25000 PPM IN DIET): inactive; negative | carcinogen call (Species: MOUSE, Strain/Sex: B6C3F1/MALE, Route: ORAL, Dose: 0, 25000, 50000 PPM IN DIET, Dose: 0, 25000, 50000 PPM IN DIET, Tumor Site: Type of Lesion: LYMPHATIC SYSTEM: LYMPHOMA, LIVER: HEPATOCELLULAR CARCINOMA): active; positive | carcinogen call (Species: RAT, Strain/Sex: F344/FEMALE, Route: ORAL, Dose: 0, 3500, 7000 PPM IN DIET, Dose: 0, 3500, 7000 PPM IN DIET): inactive; negative | carcinogen call (Species: RAT, Strain/Sex: F344/MALE, Route: ORAL, Dose: 0, 3500, 7000 PPM IN DIET, Dose: 0, 3500, 7000 PPM IN DIET): inactive; negative

O=C1OC(=O)c2ccccc21
carcinogen call (Species: MOUSE, Strain/Sex: B6C3F1/FEMALE, Route: ORAL, Dose: 0, 12019, 24038 PPM IN DIET, TWA (STUDY DURATION: 104 WK), Dose: 0, 12019, 24038 PPM IN DIET, TWA (STUDY DURATION: 104 WK)): inactive; negative | carcinogen call (Species: MOUSE, Strain/Sex: B6C3F1/MALE, Route: ORAL, Dose: 0, 16346, 32692 PPM IN DIET, TWA (STUDY DURATION: 104 WK), Dose: 0, 16346, 32692 PPM IN DIET, TWA (STUDY DURATION: 104 WK)): inactive; negative | carcinogen call (Species: RAT, Strain/Sex: F344/FEMALE, Route: ORAL, Dose: 0, 7500, 15000 PPM IN DIET FOR 105 WK, Dose: 0, 7500, 15000 PPM IN DIET FOR 105 WK): inactive; negative | carcinogen call (Species: RAT, Strain/Sex: F344/MALE, Route: ORAL, Dose: 0, 7500, 15000 PPM IN DIET FOR 105 WK, Dose: 0, 7500, 15000 PPM IN DIET FOR 105 WK): inactive; negative
